These results are taken from patent US5110976A, “Insecticidal composition comprising more than one active ingredient” (priority 1985, dated 1992).

Each structure is given as a SMILES string. “Also recorded” adds a separate entry of the source.

One data set has as its system Lucilia sericata. Description: Impregnated filter paper disc contact test, mortality (Table 1). The data set is classed as in vivo, sheep maggot fly (Lucilia sericata), imago. The settings on record: for mortality at 20 µg/disc / mortality at 70 µg/disc / mortality at 220 µg/disc / mortality at 670 µg/disc / mortality at 2000 µg/disc / mortality at 6000 µg/disc: Lucilia sericata, 24 hours, Abbot corrected; for mortality at 20 µg/disc: 0.02 mg/disc; for mortality at 70 µg/disc: 0.07 mg/disc; for mortality at 220 µg/disc: 0.22 mg/disc; for mortality at 670 µg/disc: 0.67 mg/disc; for mortality at 2000 µg/disc: 2.0 mg/disc; for mortality at 6000 µg/disc: 6.0 mg/disc. How it is done: (§1) The stereoisomers are dissolved in a 1:2 mixture of mineral oil and acetone and filter paper discs (Whatman No. 1., diameter 9 cm) are impregnated with the corresponding dosage of the solution of the active ingredient. The acetone is allowed to evaporate and the insects are examined on filter paper discs placed into Petri-dishes. Three parallels are used for each dose and 15 animals are placed in each Petri-dish. Mortality rate is determined after 24 hours. The corrected mortality % data are calculated by means of the Abbot formula.

In another data set the test system is house fly. Description: Topical LD50 on house fly (mg/kg). It is filed as in vivo. As to conditions: Musca domestica, approximate, topically. From the text:
The said selectivity index of the enantiomer-pair Ia amounts to 50/0.45=111.
In addition to the synergistic effect the composition of the present invention has a number of further advantages too and for this reason it is an outstanding product. It is very important that the compositions of the present invention are less toxical towards mammals than the hitherto known compositions of similar efficiency. […] The said selectivity index of Ia amounts to 50/0.45=111.

The subject of data set [1] is A. matricariae. In words: Direct contact test on pupae (Table 26). It is filed as in vivo. The method, then:
Mature pupae of A. matricariae on paprika leaves in Petri-dishes are exposed to a direct spray of the active ingredients. Two or three days before emergence paprika leaves with parasitized pupae are used. The leaves are laid on moistened filter paper in a plastic Petri-dish.
Application of treatment: See Example 57.
The pieces of leaf are transferred after treatment to clean Petri-dish bottoms. The trays are stored in a climatic chamber at 20° C. temperature, 70% relative humidity and a light-dark cycle of 16-8 h. Surviving pupae hatch after 2-3 days. The numbers of hatched and dead pupae are counted.

Another data set has as its system T. confusum. In words: Filter paper contact test with piperonyl butoxide (Table 7). It is filed as in vivo, confused flour-beetle (T. confusum), imagos. As to conditions: for mortality at 25 µg/disc / mortality at 50 µg/disc / mortality at 100 µg/disc / mortality at 200 µg/disc / mortality at 400 µg/disc: Tribolium confusum, 24 h, PBO, where added, 0.5 mg/disc; for mortality at 25 µg/disc: 0.025 mg/disc; for mortality at 50 µg/disc: 0.05 mg/disc; for mortality at 100 µg/disc: 0.1 mg/disc; for mortality at 200 µg/disc: 0.2 mg/disc; for mortality at 400 µg/disc: 0.4 mg/disc. The method, then: as §1
T. confusum (confused flour-beetle) imagos are treated according to Example 20 and percental mortality is determined after 24 hours. The dose of piperonyl butoxide (referred to furtheron as "[…]") amounts to 0.5 mg/disc The results are disclosed in Table 7.

The test system of data set [2] is L. decemlineata. Description: 5 EC formulations sprayed on glass plates (Table 20). The settings on record: 5 EC formulation, 48 hours. The data set is classed as in vivo, imagos. The method, then: The 5 EC formulations prepared according to Example 42 are diluted 50x, 100x, 200x, 400x, 800x and 1600x with water and 0.5 ml doses are sprayed onto glass plates. After drying 10 L. decemlineata imagos are placed on each glass plate and the insects are covered with Petri-dishes. The tests are carried out by using 6 doses and 3 parallels for each dose. The killed insects are counted after 48 hours.

The test system of data set [3] is useful entomophages and parasites. In words: Damage to useful entomophages and parasites. As to conditions: in vivo.
In data set [4] the test system is Leptinotarsa decemlineata. In words: Topical test on potato beetle (Table 6). It is filed as in vivo, imagos. The settings on record: 24 h. How it is done: The active ingredients are dissolved in 2-ethoxyethanol and […] of the solutions are applied onto the abdominal sterna of potato beetle (Leptinotarsa decemlineata) imagos. The treatments are carried out by using two parallels and 10 insects for each dose. […]

For data set [5], the system named is A. matricariae. Description: Direct contact test of pupae (Table 5). It is filed as in vivo. How it is done: Mature pupae of A. matricariae on paprika leaves in Petri dishes are exposed to a direct spray of the active ingredients.
Two or three days before emergence paprika leaves with parasitized pupae are used. The leaves are laid on filter paper in a plastic Petri dish The filter paper is moistened.
Application of treatment: See Example 23.
The pieces of leaf are transferred after treatment to clean Petri dish bottoms The trays are stored in a clinic chamber at 20° C. temperature, 70% relative humidity and a light-dark cycle of […]. Surviving pupae hatch after 2-3 days. The numbers of hatched and dead pupae are counted.

Data set [6] in a line: Allergy and skin diseases. The settings on record: in vivo.
Data set [7] concerns L. decemlineata. In words: 5 EC formulation sprayed on glass plates (Table 9). It is filed as in vivo, Colorado beetle (L. decemlineata), imagos. The settings on record: 48 hours. How it is done:
From a 5 EC formulation according to Example 17 50-, 100-, 200-, 400-, 800- and 1600-fold diluted emulsions are prepared by diluting with water. 0.5 ml of the emulsions are sprayed onto glass plates whereupon after drying 10 Colorado beetles (L. decemlineata) imagos are placed on each glass plate and the insects are covered. The tests are carried out with 6 doses by carrying out 3 parallels for each dose. The killed insects are counted after 48 hours and the percental mortality rate is calculated.

A further data set in a line: Repellant effect. The settings on record: in vivo.
The test system of another data set is Musca domestica. Description: Topical LD50 (Table 3). The data set is classed as in vivo, house fly (Musca domestica), 3-5 days' old females. The method, then:
In Table 3 the LD50 values of the Ig and Ii isomers and those of the Ib isomer-pair are disclosed. The data are topically measured.
The active ingredients are dissolved in 2-ethoxyethanol (cellosolve) and 0.3 μl droplets of the solutions are applied onto the dorsal cuticulum of 3-5 days' old female house flies. 10 animals are used and 2 parallels are carried out for each dose. The tests are carried out for 5 dose levels between activity limits of 0% and 100%. After treatment the flies are placed into glass vials. Mortality is determined after 24 hours. Data are transformed to log10 dosage and probit mortality. LD50 and confidence interval values are calculated by linear regression analysis of the log-probit data. The expected values required for the calculation of synergism are obtained by means of harmonic average. The synergistic factor is the quotient of the expected and measured values.

With `CC1(C)[C@H](C(=O)O[C@H](C#N)c2cccc(Oc3ccccc3)c2)[C@@H]1C=C(Cl)Cl` (relative stereo) [Ia], in the data set on Lucilia sericata, the mortality at 20 µg/disc turned out to be 0%, the mortality at 70 µg/disc was 30%, the mortality at 220 µg/disc is 29% and the mortality at 670 µg/disc stood at 57%. Further, in the data set with Lucilia sericata, the mortality at 2000 µg/disc worked out at 60% and the mortality at 6000 µg/disc is 65%. For the same compound, the LD50 in the data set with house fly was around 0.45 mg/kg. In the data set on A. matricariae [1] (1 ppm), this compound had a Mortality % of 0%. The compound also displayed a Mortality % in the data set on A. matricariae [1] (5 ppm) of 0%. The same compound came in with a Mortality % in the data set with A. matricariae [1] (10 ppm) of 12.5%. Besides, in the data set with A. matricariae [1] (33 ppm), the Mortality % was 77.0%. Further, in the data set on T. confusum, the mortality at 25 µg/disc is 0%, the mortality at 50 µg/disc was found to be 0%, the mortality at 100 µg/disc was determined as 12% and the mortality at 200 µg/disc worked out at 53%. Moreover, the mortality at 400 µg/disc with T. confusum came out at 96%. Besides, the Mortality % in the data set on L. decemlineata [2] (dilution 50x) was 97%. Moreover, the Mortality % with L. decemlineata [2] (dilution 100x) was determined as 87%. This compound returned a Mortality % in the data set on L. decemlineata [2] (dilution 200x) of 63%. Moreover, the Mortality % in the data set on L. decemlineata [2] (dilution 400x) came to 53%. Besides, the Mortality % in the data set on L. decemlineata [2] (dilution 800x) worked out at 27%. The compound also yielded a Mortality % in the data set with L. decemlineata [2] (dilution 1600x) of 0%.

`CC1(C)[C@H](C=C(Cl)Cl)[C@H]1C(=O)O[C@H](C#N)c1cccc(Oc2ccccc2)c1` (relative stereo) [Ib]: the “damage / toxicity to useful entomophages and parasites” value in data set [3] is “does not damage useful entomophages and parasites; also recorded: less toxic on parasites than the isomer-pair Ia”. For the same compound, in the data set with Lucilia sericata (Ib versus Ia), the comparative activity result was “more active than enantiomer-pair Ia”. In the data set on Lucilia sericata, this compound displayed a mortality at 20 µg/disc of 22%. This compound also returned a mortality at 70 µg/disc with Lucilia sericata of 55%. This compound also returned a mortality at 220 µg/disc in the data set on Lucilia sericata of 70%. In the data set on Lucilia sericata, this compound registered a mortality at 670 µg/disc of 75%. Further, the mortality at 2000 µg/disc with Lucilia sericata is 100%. In the data set with Lucilia sericata, this compound showed a mortality at 6000 µg/disc of 100%. For the same compound, the LD50 in the data set on house fly was around 0.64 mg/kg. Besides, the mortality at 0.05 µg/insect in data set [4] (0.05 μg/insect) was found to be 0%. Besides, in data set [4] (0.10 μg/insect), the mortality at 0.1 µg/insect amounted to 25%. The compound further displayed a mortality at 0.2 µg/insect in data set [4] (0.20 μg/insect) of 75%. Moreover, the mortality at 0.4 µg/insect in [4] (0.40 μg/insect) came to 85%. The Mortality % in the data set on A. matricariae [5] (1 ppm) is given as 0%; in the data set on A. matricariae [5] (5 ppm), 0%; in the data set with A. matricariae [5] (10 ppm) it was 0%; with A. matricariae [5] (30 ppm), 61.0%; in the data set on L. decemlineata [7] (dilution 50x), 100%; in the data set on L. decemlineata [7] (dilution 100x), 87%. The Mortality % in the data set with L. decemlineata [7] (dilution 200x) worked out at 57%; in the data set with L. decemlineata [7] (dilution 400x) it was 37%; with L. decemlineata [7] (dilution 800x) it was 13%; with L. decemlineata [7] (dilution 1600x), 0%. Moreover, the “allergy and skin diseases” value in [6] is “causes no allergy and skin diseases”. Further, the “synergizability with piperonyl butoxide” value in the data set on T. confusum (Ib versus Ia) is “can be synergized at a higher level than isomer pair Ia”. Also, in the data set with T. confusum, the mortality at 25 µg/disc is 0%. In the data set on T. confusum, this compound showed a mortality at 50 µg/disc of 10%. Moreover, the mortality at 100 µg/disc in the data set with T. confusum came to 51%. In the data set on T. confusum, the mortality at 200 µg/disc stood at 85%. In the data set with T. confusum, this compound had a mortality at 400 µg/disc of 100%. Moreover, the repellant effect entry in “Repellant effect” is “outstandingly good”. Further, the LD50 expected in the data set with Musca domestica (harmonic average of the single isomers) was found to be 24.5 ng/insect. Also, in the data set with Musca domestica (quotient of expected and measured LD50), the synerg. factor came out at 1.92. Besides, the LD50 measured in the data set with Musca domestica (topical, dorsal cuticulum, 24 hours) stood at 12.8 ng/insect.

Take `CC1(C)C(C=C(Cl)Cl)C1C(=O)OC(C#N)c1cccc(Oc2ccccc2)c1` (stereo not drawn) [Ia:Ib = 4:6]: the Mortality % in the data set on A. matricariae [1] (1 ppm) was 0%; in the data set with A. matricariae [1] (5 ppm), 0%; in the data set with A. matricariae [1] (10 ppm) it was 0%; with A. matricariae [1] (33 ppm) it was 14.3%; with L. decemlineata [2] (dilution 50x, 2880 min), 93%; with L. decemlineata [2] (dilution 100x, 2880 min) it was 80%. Further, the Mortality % in the data set with L. decemlineata [2] (dilution 200x, 2880 min) amounted to 73%; in the data set on L. decemlineata [2] (dilution 400x, 2880 min) it was 53%; with L. decemlineata [2] (dilution 800x, 2880 min), 33%; with L. decemlineata [2] (dilution 1600x), 0%.

Broadly, the mortality is the percentage killed. As a reminder, the LD50 is the dose expected to kill half of the subjects tested.
